Test results as given in the supplement of paper PMC11208160.

test: recombinant barcode read abundance after kanamycin selection (control-corrected) (log10(CPM+1)); higher = more efficient recombination; sequences stand for … in AGTGCAGAGAAAATCGGCCAGTTTTCTCTGCCTGCAGTCCGCATGCCGT…ATTTATGCAGCGGACTGCCTTTCTCCCAAAGTGATAAACCGGACAGTATCATGGACCGGTTTTCCCGGTAATCCGTATTTGCAAGGTTGGTTTCACT; site = the 11-nt target
Method in brief: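 A promoter, a target, a barcode and the first 104 bridge RNA bases under J23119 made up each oligo. Oligos were Gibson-cloned into a vector bearing the other 73 bp and a T7-inducible recombinase, then co-electroporated into E. coli with a donor plasmid and plated in duplicate on chloramphenicol/ampicillin LB agar (control) or chloramphenicol/ampicillin/kanamycin with 0.1 mM IPTG. Recombination efficiency is the averaged, control-corrected counts per million of recombinant-junction barcodes. Reported values are log10(CPM+1).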

| Sequence | recombinant barcode read abundance (log10) |
| --- | --- |
| AGGCGGTCGTGGGTTCTAACCTGTTGCTTAG [AGGCGGTCTAA_LTGcore_CG_RTGcore_CT] (site AGGCGGTCTAA) (LTG core: CG, RTG core: CT) | 0.398 |
| TGTATTCTATGGGTTCTAACCTGTTGCCTTA [TGTATTCCTAG_LTGcore_TA_RTGcore_TA] (site TGTATTCCTAG) (LTG core: TA, RTG core: TA) | 0.0243 |
| GCGGGACACTGGGTTCTAACCTGTTGCCTGT [GCGGGACCTAG_LTGcore_AC_RTGcore_AC] (site GCGGGACCTAG) (LTG core: AC, RTG core: AC) | 0 |
| TCGCGACGCTGGGTTCTAACCTGTTGCCGGC [TCGCGACCTCG_LTGcore_GC_RTGcore_GC] (site TCGCGACCTCG) (LTG core: GC, RTG core: GC) | 0.0326 |
| CGGTCCCCCTGGGTTCTAACCTGTTGCCAGG [CGGTCCCCTTG_LTGcore_CC_RTGcore_CC] (site CGGTCCCCTTG) (LTG core: CC, RTG core: CC) | 0.0887 |
| GAGGCCTGTTGGGTTCTAACCTGTTGCCAAG [GAGGCCTCTTG_LTGcore_GT_RTGcore_CT] (site GAGGCCTCTTG) (LTG core: GT, RTG core: CT) | 0.586 |
| CATATTAAATGGGTTCTAACCTGTTGCCTAG [CATATTACTAG_LTGcore_AA_RTGcore_CT] (site CATATTACTAG) (LTG core: AA, RTG core: CT) | 0.0356 |
| GAGGCCTTATGGGTTCTAACCTGTTGCCAAG [GAGGCCTCTTG_LTGcore_TA_RTGcore_CT] (site GAGGCCTCTTG) (LTG core: TA, RTG core: CT) | 0.145 |
| ATGCTTTCTTGGGTTCTAACCTGTTGCCTCC [ATGCTTTCTAG_LTGcore_CT_RTGcore_GG] (site ATGCTTTCTAG) (LTG core: CT, RTG core: GG) | 0.127 |
| ATGTCCCCCTGGGTTCTAACCTGTTGCTCAG [ATGTCCCCTGA_LTGcore_CC_RTGcore_CT] (site ATGTCCCCTGA) (LTG core: CC, RTG core: CT) | 0.137 |
| AGGCGGTCCTGGGTTCTAACCTGTTGCTTGG [AGGCGGTCTAA_LTGcore_CC_RTGcore_CC] (site AGGCGGTCTAA) (LTG core: CC, RTG core: CC) | 0.334 |
| GAGTCCACTTGGGTTCTAACCTGTTGCGTTC [GAGTCCACTAC_LTGcore_CT_RTGcore_GA] (site GAGTCCACTAC) (LTG core: CT, RTG core: GA) | 0.671 |
| AAACACACTTGGGTTCTAACCTGTTGCCTCG [AAACACACTAG_LTGcore_CT_RTGcore_CG] (site AAACACACTAG) (LTG core: CT, RTG core: CG) | 1.01 |
| AAACACAGTTGGGTTCTAACCTGTTGCCTAC [AAACACACTAG_LTGcore_GT_RTGcore_GT] (site AAACACACTAG) (LTG core: GT, RTG core: GT) | 0.112 |
| GCGGGACGGTGGGTTCTAACCTGTTGCCTCC [GCGGGACCTAG_LTGcore_GG_RTGcore_GG] (site GCGGGACCTAG) (LTG core: GG, RTG core: GG) | 0.182 |
| GGGCGTGCATGGGTTCTAACCTGTTGCCTTG [GGGCGTGCTAG_LTGcore_CA_RTGcore_CA] (site GGGCGTGCTAG) (LTG core: CA, RTG core: CA) | 0.0757 |
| CGAGCCCCTTGGGTTCTAACCTGTTGCTGGA [CGAGCCCCTCA_LTGcore_CT_RTGcore_TC] (site CGAGCCCCTCA) (LTG core: CT, RTG core: TC) | 0.994 |

| Sequence | recombinant barcode read abundance (log10) |
| --- | --- |
| GGGCGGAGTTGGGTTCTAACCTGTTGCGGAC [GGGCGGACTCC_LTGcore_GT_RTGcore_GT] (site GGGCGGACTCC) (LTG core: GT, RTG core: GT) | 0.199 |
| GGGCGTGGTTGGGTTCTAACCTGTTGCCTAC [GGGCGTGCTAG_LTGcore_GT_RTGcore_GT] (site GGGCGTGCTAG) (LTG core: GT, RTG core: GT) | 0.593 |
| GGACACCAGTGGGTTCTAACCTGTTGCCTCT [GGACACCCTAG_LTGcore_AG_RTGcore_AG] (site GGACACCCTAG) (LTG core: AG, RTG core: AG) | 0.0138 |
| CGGTCCCATTGGGTTCTAACCTGTTGCCAAT [CGGTCCCCTTG_LTGcore_AT_RTGcore_AT] (site CGGTCCCCTTG) (LTG core: AT, RTG core: AT) | 0.494 |
| AAACATGTATGGGTTCTAACCTGTTGCCTAG [AAACATGCTAG_LTGcore_TA_RTGcore_CT] (site AAACATGCTAG) (LTG core: TA, RTG core: CT) | 0.0615 |
| AGGAGGTCTTGGGTTCTAACCTGTTGCCTAA [AGGAGGTCTAG_LTGcore_CT_RTGcore_TT] (site AGGAGGTCTAG) (LTG core: CT, RTG core: TT) | 0.203 |
| CGCGCCCCTTGGGTTCTAACCTGTTGCGGCT [CGCGCCCCTCC_LTGcore_CT_RTGcore_AG] (site CGCGCCCCTCC) (LTG core: CT, RTG core: AG) | 0.0596 |
| GGTGCCCTGTGGGTTCTAACCTGTTGCCGCA [GGTGCCCCTCG_LTGcore_TG_RTGcore_TG] (site GGTGCCCCTCG) (LTG core: TG, RTG core: TG) | 0.15 |
| GAGTCCTCTTGGGTTCTAACCTGTTGCCTGG [GAGTCCTCTAG_LTGcore_CT_RTGcore_CC] (site GAGTCCTCTAG) (LTG core: CT, RTG core: CC) | 1.39 |
| GGGCGGACTTGGGTTCTAACCTGTTGCGGTG [GGGCGGACTCC_LTGcore_CT_RTGcore_CA] (site GGGCGGACTCC) (LTG core: CT, RTG core: CA) | 0.17 |
| AGTCTTAGGTGGGTTCTAACCTGTTGCCAAG [AGTCTTACTTG_LTGcore_GG_RTGcore_CT] (site AGTCTTACTTG) (LTG core: GG, RTG core: CT) | 0 |
| TTATAAAGGTGGGTTCTAACCTGTTGCCTCC [TTATAAACTAG_LTGcore_GG_RTGcore_GG] (site TTATAAACTAG) (LTG core: GG, RTG core: GG) | 0.154 |
| GGCTCCCGCTGGGTTCTAACCTGTTGCGGGC [GGCTCCCCTCC_LTGcore_GC_RTGcore_GC] (site GGCTCCCCTCC) (LTG core: GC, RTG core: GC) | 0.0637 |
| CATATTACTTGGGTTCTAACCTGTTGCCTAG [CATATTACTAG_LTGcore_CT_RTGcore_CT] (site CATATTACTAG) (LTG core: CT, RTG core: CT) | 0.22 |
| GGTGCCCAGTGGGTTCTAACCTGTTGCCGAG [GGTGCCCCTCG_LTGcore_AG_RTGcore_CT] (site GGTGCCCCTCG) (LTG core: AG, RTG core: CT) | 0.202 |
| GTCGCCCCTTGGGTTCTAACCTGTTGCTAGG [GTCGCCCCTTA_LTGcore_CT_RTGcore_CC] (site GTCGCCCCTTA) (LTG core: CT, RTG core: CC) | 0.238 |
| TAGAGGGCTTGGGTTCTAACCTGTTGCGGCG [TAGAGGGCTCC_LTGcore_CT_RTGcore_CG] (site TAGAGGGCTCC) (LTG core: CT, RTG core: CG) | 0.972 |
